Source: patent publication US9012443B2 (Amgen Inc., priority 2011, dated 2015)

Assays:
Nav 1.7 = Nav 1.7 (Homo sapiens (Human), UniProt Q15858); experiment: Nav 1.7 in vitro PX assay (PatchXpress whole cell voltage clamp); format: cell-based; settings: 293 cells, human Nav1.7, partially inactivated state; read-out: Nav1.7 PX IC50 IP
Summary of the method: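 HEK293 cells stably expressing human Nav1.7, whole-cell voltage clamp on PatchXpress, held at potential giving 20–50% inactivation; current elicited by 20 msec pulse to −10 mV.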

Nav 1.5 = Nav 1.5 (Homo sapiens (Human), UniProt Q14524); experiment: Nav 1.5 in vitro PX assay (PatchXpress whole cell voltage clamp); format: cell-based; settings: 293 cells stably transfected with Nav 1.5; second part of table; read-out: Nav1.5 PX IC50
Summary of the method: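 HEK293 cells stably expressing Nav 1.5, whole-cell voltage clamp held at −50 mV; 20 msec test pulses to 0 mV at 0.1 Hz, each preceded by a step to −120 mV.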

Chain of Nav 1.5 (Q14524 whole entry): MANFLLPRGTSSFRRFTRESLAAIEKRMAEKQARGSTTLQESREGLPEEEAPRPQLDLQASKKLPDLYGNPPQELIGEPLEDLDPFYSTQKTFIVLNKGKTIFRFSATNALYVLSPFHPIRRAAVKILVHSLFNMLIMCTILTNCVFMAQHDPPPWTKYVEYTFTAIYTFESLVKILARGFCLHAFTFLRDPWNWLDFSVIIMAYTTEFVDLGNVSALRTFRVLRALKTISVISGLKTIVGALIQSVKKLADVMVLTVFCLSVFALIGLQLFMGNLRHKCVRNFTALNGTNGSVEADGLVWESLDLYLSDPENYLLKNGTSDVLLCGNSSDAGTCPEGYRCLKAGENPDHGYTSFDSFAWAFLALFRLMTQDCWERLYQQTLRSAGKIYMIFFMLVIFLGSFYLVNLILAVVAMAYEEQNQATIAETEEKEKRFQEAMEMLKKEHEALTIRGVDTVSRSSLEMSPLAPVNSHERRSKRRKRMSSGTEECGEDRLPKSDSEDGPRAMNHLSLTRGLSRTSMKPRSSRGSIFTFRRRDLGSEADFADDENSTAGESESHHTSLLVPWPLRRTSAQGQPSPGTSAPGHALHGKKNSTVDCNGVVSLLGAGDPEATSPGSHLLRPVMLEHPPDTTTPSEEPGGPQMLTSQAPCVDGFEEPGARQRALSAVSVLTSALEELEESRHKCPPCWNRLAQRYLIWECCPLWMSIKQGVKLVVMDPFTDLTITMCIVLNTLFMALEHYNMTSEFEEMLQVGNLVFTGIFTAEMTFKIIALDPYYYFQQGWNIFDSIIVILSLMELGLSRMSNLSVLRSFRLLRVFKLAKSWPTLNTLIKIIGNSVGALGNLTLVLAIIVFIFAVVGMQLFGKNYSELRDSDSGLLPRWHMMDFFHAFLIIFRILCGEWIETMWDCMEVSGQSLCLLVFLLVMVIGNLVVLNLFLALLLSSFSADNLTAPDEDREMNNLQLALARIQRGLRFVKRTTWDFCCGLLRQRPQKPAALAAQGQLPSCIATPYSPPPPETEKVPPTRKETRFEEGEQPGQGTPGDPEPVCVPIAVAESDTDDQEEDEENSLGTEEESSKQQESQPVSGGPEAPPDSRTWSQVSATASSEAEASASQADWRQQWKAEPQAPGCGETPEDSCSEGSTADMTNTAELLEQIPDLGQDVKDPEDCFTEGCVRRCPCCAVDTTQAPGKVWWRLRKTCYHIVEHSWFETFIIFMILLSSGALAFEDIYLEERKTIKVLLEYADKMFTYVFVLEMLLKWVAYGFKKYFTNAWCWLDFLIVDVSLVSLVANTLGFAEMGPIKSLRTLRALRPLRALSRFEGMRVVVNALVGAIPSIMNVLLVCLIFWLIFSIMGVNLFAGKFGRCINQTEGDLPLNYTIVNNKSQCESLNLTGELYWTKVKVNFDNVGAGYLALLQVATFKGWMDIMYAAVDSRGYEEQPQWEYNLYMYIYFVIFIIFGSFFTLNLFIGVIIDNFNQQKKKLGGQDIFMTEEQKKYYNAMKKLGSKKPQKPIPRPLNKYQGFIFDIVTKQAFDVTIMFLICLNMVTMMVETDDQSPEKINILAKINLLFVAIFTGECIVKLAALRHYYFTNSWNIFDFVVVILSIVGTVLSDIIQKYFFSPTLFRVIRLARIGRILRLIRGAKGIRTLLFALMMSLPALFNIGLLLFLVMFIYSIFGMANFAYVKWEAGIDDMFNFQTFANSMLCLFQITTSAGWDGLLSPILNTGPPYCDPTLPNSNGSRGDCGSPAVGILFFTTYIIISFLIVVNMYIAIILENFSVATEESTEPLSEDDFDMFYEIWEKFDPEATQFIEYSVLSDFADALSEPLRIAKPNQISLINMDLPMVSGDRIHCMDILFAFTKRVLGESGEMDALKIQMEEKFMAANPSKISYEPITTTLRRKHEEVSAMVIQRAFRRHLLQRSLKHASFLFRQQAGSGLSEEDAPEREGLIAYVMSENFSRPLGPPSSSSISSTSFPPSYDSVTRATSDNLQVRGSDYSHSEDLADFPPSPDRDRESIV
Chain of Nav 1.7 (Q15858 whole entry): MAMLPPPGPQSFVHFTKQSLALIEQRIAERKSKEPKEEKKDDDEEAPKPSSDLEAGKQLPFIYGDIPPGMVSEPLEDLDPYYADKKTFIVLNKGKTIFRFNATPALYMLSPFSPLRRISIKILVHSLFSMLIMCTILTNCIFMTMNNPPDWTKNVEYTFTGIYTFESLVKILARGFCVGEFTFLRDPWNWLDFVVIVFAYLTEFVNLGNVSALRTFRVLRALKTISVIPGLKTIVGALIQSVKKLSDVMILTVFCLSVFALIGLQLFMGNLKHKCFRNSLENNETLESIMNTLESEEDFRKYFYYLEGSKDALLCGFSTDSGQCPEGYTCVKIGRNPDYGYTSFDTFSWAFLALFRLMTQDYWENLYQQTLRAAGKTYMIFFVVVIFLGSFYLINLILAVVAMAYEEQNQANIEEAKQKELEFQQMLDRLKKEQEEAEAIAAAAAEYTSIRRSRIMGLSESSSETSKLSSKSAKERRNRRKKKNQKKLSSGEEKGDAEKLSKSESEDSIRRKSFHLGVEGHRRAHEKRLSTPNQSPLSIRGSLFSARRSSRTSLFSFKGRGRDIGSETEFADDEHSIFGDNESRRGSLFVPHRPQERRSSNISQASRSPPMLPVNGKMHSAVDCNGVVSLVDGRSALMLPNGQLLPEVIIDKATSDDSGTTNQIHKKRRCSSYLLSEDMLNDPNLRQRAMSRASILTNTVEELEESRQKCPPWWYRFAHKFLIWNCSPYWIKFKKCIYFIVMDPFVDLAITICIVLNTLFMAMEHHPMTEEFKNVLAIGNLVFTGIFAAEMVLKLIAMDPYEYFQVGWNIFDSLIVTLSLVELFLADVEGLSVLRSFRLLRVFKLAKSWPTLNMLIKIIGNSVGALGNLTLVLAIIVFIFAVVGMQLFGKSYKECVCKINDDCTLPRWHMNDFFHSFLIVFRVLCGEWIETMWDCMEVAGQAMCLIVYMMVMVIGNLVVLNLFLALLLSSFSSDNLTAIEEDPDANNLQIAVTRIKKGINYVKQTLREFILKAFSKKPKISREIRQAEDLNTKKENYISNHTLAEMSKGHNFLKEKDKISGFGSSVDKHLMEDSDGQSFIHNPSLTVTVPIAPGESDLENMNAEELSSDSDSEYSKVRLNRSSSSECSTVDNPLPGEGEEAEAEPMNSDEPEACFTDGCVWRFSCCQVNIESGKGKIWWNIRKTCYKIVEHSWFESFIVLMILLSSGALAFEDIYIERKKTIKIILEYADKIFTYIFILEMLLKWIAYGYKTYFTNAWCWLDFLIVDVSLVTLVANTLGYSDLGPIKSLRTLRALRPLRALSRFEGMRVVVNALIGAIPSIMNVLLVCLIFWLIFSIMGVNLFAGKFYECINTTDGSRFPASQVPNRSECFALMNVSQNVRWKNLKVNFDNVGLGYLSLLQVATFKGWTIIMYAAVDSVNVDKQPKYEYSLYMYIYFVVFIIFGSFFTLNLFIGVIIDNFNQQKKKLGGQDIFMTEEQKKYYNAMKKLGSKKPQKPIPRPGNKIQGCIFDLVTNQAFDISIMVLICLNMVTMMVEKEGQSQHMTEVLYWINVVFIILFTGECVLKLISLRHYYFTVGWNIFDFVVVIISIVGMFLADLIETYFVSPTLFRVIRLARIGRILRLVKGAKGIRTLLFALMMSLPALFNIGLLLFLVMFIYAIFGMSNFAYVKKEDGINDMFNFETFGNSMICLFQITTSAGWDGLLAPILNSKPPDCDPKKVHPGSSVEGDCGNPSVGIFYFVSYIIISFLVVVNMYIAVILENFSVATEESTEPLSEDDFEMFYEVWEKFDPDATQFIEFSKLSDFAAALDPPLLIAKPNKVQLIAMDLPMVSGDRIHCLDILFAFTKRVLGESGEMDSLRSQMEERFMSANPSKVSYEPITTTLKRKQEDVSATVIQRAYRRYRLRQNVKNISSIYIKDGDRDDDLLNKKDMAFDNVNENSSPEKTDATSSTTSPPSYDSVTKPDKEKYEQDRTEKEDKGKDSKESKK

SMILES	IC50 (Nav 1.7)	IC50 (Nav 1.5)
COc1ccccc1-c1cncc2cc(S(=O)(=O)Nc3nccs3)ccc12 [Example 289, 4-(2-methoxyphenyl)-N-(thiazol-2-yl)isoquinoline-7-sulfonamide]	340 nM	> 30000 nM
COc1cc(-c2cccc(F)c2)ccc1-c1ncnc2cc(S(=O)(=O)Nc3ccncn3)ccc12 [Example 527, 4-(3′-FLUORO-3-METHOXY-[1,1′-BIPHENYL]-4-YL)-N-(PYRIMIDIN-4-YL)QUINAZOLINE-7-SULFONAMIDE]	252 nM	> 30000 nM
N#CCOc1cc(Cl)ccc1-c1nccc2cc(S(=O)(=O)Nc3nccs3)ccc12 [Example 373, 1-(4-CHLORO-2-(CYANOMETHOXY)PHENYL)-N-(THIAZOL-2-YL)ISOQUINOLINE-6-SULFONAMIDE 2,2,2-TRIFLUOROACETATE]	153 nM	> 30000 nM
COc1cc(C(F)F)c(F)cc1-c1ncnc2cc(S(=O)(=O)Nc3nccs3)ccc12 [Example 512, 4-(4-(DIFLUOROMETHYL)-5-FLUORO-2-METHOXYPHENYL)-N-(THIAZOL-2-YL)QUINAZOLINE-7-SULFONAMIDE]	234 nM	> 30000 nM
COc1ccc(Cl)cc1-c1nccc2cc(S(=O)(=O)Nc3ncns3)ccc12 [Example 346, 1-(5-CHLORO-2-METHOXYPHENYL)-N-(1,2,4-THIADIAZOL-5-YL)ISOQUINOLINE-6-SULFONAMIDE]	132 nM	> 30000 nM
COc1ccccc1-c1nccc2cc(S(=O)(=O)Nc3nccs3)ccc12 [Example 406, 1-(2-METHOXYPHENYL)-N-(THIAZOL-2-YL)ISOQUINOLINE-6-SULFONAMIDE]	456 nM	> 30000 nM
COc1ccc(-c2cccc(C(F)(F)F)c2)cc1-c1nccc2cc(S(=O)(=O)Nc3nncs3)ccc12 [Example 344, 1-(4-METHOXY-3′-(TRIFLUOROMETHYL)-[1,1′-BIPHENYL]-3-YL)-N-(1,3,4-THIADIAZOL-2-YL)ISOQUINOLINE-6-SULFONAMIDE]	34 nM	> 30000 nM
COc1cc(-c2cccc(C(F)(F)F)c2)ccc1-c1ncnc2cc(S(=O)(=O)Nc3ccncn3)ccc12 [Example 528, 4-(3-METHOXY-3′-(TRIFLUOROMETHYL)-[1,1′-BIPHENYL]-4-YL)-N-(PYRIMIDIN-4-YL)QUINAZOLINE-7-SULFONAMIDE]	58 nM	> 30000 nM
COc1cc(Oc2ccc(F)cc2)ccc1-c1nccc2cc(S(=O)(=O)Nc3ccncn3)ccc12 [Example 462, 1-(4-(4-FLUOROPHENOXY)-2-METHOXYPHENYL)-N-(PYRIMIDIN-4-YL)ISOQUINOLINE-6-SULFONAMIDE]	203 nM	> 30000 nM
COc1cc(F)ccc1-c1ncnc2cc(S(=O)(=O)Nc3nccs3)ccc12 [Example 271, 4-(4-FLUORO-2-METHOXYPHENYL)-N-(THIAZOL-2-YL)QUINAZOLINE-7-SULFONAMIDE]	450 nM	> 30000 nM
COc1cc(-c2cccc(F)c2)ccc1-c1ncnc2cc(S(=O)(=O)Nc3nncs3)ccc12 [Example 529, 4-(3′-FLUORO-3-METHOXY-[1,1′-BIPHENYL]-4-YL)-N-(1,3,4-THIADIAZOL-2-YL)QUINAZOLINE-7-SULFONAMIDE]	258 nM	> 30000 nM
COc1cc(-c2cc(F)ccc2F)ccc1-c1nccc2cc(S(=O)(=O)Nc3ccncn3)ccc12 [Example 446, 1-(2′,5′-DIFLUORO-3-METHOXY-[1,1′-BIPHENYL]-4-YL)-N-(PYRIMIDIN-4-YL)ISOQUINOLINE-6-SULFONAMIDE]	152 nM	> 30000 nM
Cc1cc(Cl)ccc1-c1ncnc2cc(S(=O)(=O)Nc3ncns3)ccc12 [Example 532]	996 nM	> 30000 nM
COc1cc(-c2cc(F)cc(C#N)c2)ccc1-c1nccc2cc(S(=O)(=O)Nc3ccncn3)ccc12 [Example 487, 1-(3′-CYANO-5′-FLUORO-3-METHOXY-[1,1′-BIPHENYL]-4-YL)-N-(PYRIMIDIN-4-YL)ISOQUINOLINE-6-SULFONAMIDE]	287 nM	> 30000 nM
COc1ccccc1-c1c(C#N)cnc2cc(S(=O)(=O)Nc3nccs3)ccc12 [Example 324, 3-CYANO-4-(2-METHOXYPHENYL)-N-(THIAZOL-2-YL)QUINOLINE-7-SULFONAMIDE]	662 nM	> 30000 nM
COc1ccc(-c2cccc(F)c2)cc1-c1nccc2cc(S(=O)(=O)Nc3nncs3)ccc12 [Example 345, 1-(3′-FLUORO-4-METHOXY-[1,1′-BIPHENYL]-3-YL)-N-(1,3,4-THIADIAZOL-2-YL)ISOQUINOLINE-6-SULFONAMIDE]	75 nM	> 30000 nM
COc1cc(-c2ccc(Cl)c(C)c2)ccc1-c1nccc2cc(S(=O)(=O)Nc3ccncn3)ccc12 [Example 493, 1-(4′-CHLORO-3-METHOXY-3′-METHYL-[1,1′-BIPHENYL]-4-YL)-N-(PYRIMIDIN-4-YL)ISOQUINOLINE-6-SULFONAMIDE]	86 nM	> 30000 nM

SMILES	IC50 (Nav 1.7)	IC50 (Nav 1.5)
COc1cc(-c2cc(C)cc(C)c2)ccc1-c1nccc2cc(S(=O)(=O)Nc3ccncn3)ccc12 [Example 470]	180 nM	> 30000 nM
N#CCOc1ccccc1-c1ncc(F)c2cc(S(=O)(=O)Nc3nccs3)ccc12 [Example 398, 1-(2-(CYANOMETHOXY)PHENYL)-4-FLUORO-N-(THIAZOL-2-YL)ISOQUINOLINE-6-SULFONAMIDE]	197 nM	> 30000 nM
COc1cc(-c2ccc(F)c(C#N)c2)ccc1-c1nccc2cc(S(=O)(=O)Nc3ccncn3)ccc12 [Example 486, 1-(3′-CYANO-4′-FLUORO-3-METHOXY-[1,1′-BIPHENYL]-4-YL)-N-(PYRIMIDIN-4-YL)ISOQUINOLINE-6-SULFONAMIDE]	338 nM	> 30000 nM
COc1ccc(-c2cccc(F)c2)cc1-c1n[nH]c(=O)c2cc(S(=O)(=O)Nc3ccncn3)ccc12 [Example 509, 1-(3′-FLUORO-4-METHOXY-[1,1′-BIPHENYL]-3-YL)-4-OXO-N-(PYRIMIDIN-4-YL)-3,4-DIHYDROPHTHALAZINE-6-SULFONAMIDE]	218 nM	> 30000 nM
COc1cc(-c2ccc(F)cc2)ccc1-c1nccc2cc(S(=O)(=O)Nc3ccncn3)ccc12 [Example 350, 1-(4′-FLUORO-3-METHOXY-[1,1′-BIPHENYL]-4-YL)-N-(PYRIMIDIN-4-YL)ISOQUINOLINE-6-SULFONAMIDE]	161 nM	> 30000 nM
N#CCOc1ccccc1-c1nccc2cc(S(=O)(=O)Nc3nccs3)ccc12 [Example 375, 1-(2-(CYANOMETHOXY)PHENYL)-N-(THIAZOL-2-YL)ISOQUINOLINE-6-SULFONAMIDE 2,2,2-TRIFLUOROACETATE]	544 nM	> 30000 nM
COc1cc(C(F)(F)F)ccc1-c1nc(C)nc2cc(S(=O)(=O)Nc3nccs3)ccc12 [Example 510, 4-(2-METHOXY-4-(TRIFLUOROMETHYL)PHENYL)-2-METHYL-N-(THIAZOL-2-YL)QUINAZOLINE-7-SULFONAMIDE]	464 nM	> 30000 nM
COc1cc(OCC(C)C)ccc1-c1nccc2cc(S(=O)(=O)Nc3ccncn3)ccc12 [Example 361, 1-(4-ISOBUTOXY-2-METHOXYPHENYL)-N-(PYRIMIDIN-4-YL)ISOQUINOLINE-6-SULFONAMIDE]	463 nM	> 30000 nM
COc1ccccc1-c1ncc(F)c2cc(S(=O)(=O)Nc3ncns3)ccc12 [Example 393, 4-FLUORO-1-(2-METHOXYPHENYL)-N-(1,2,4-THIADIAZOL-5-YL)ISOQUINOLINE-6-SULFONAMIDE]	304 nM	> 30000 nM
COc1cc(-c2ccc(C)c(F)c2)ccc1-c1nccc2cc(S(=O)(=O)Nc3ccncn3)ccc12 [Example 471, 1-(3′-FLUORO-3-METHOXY-4′-METHYL-[1,1′-BIPHENYL]-4-YL)-N-(PYRIMIDIN-4-YL)ISOQUINOLINE-6-SULFONAMIDE]	56 nM	> 30000 nM
COc1cc(-c2cccc(F)c2)ccc1-c1ncnc2cc(S(=O)(=O)Nc3ncns3)ccc12 [Example 525, 4-(3′-FLUORO-3-METHOXY-[1,1′-BIPHENYL]-4-YL)-N-(1,2,4-THIADIAZOL-5-YL)QUINAZOLINE-7-SULFONAMIDE]	58 nM	> 30000 nM
COc1ccc(-c2ccc(-c3nccc4cc(S(=O)(=O)Nc5ccncn5)ccc34)c(OC)c2)cc1 [Example 468, 1-(3,4′-DIMETHOXY-[1,1′-BIPHENYL]-4-YL)-N-(PYRIMIDIN-4-YL)ISOQUINOLINE-6-SULFONAMIDE]	359 nM	> 30000 nM
COc1cc(C(F)(F)F)ccc1-c1n[nH]c(=O)c2cc(S(=O)(=O)Nc3nccs3)ccc12 [Example 293, 1-(2-METHOXY-4-(TRIFLUOROMETHYL)PHENYL)-4-OXO-N-(THIAZOL-2-YL)-3,4-DIHYDROPHTHALAZINE-6-SULFONAMIDE]	150 nM	> 30000 nM
COc1cc(-c2ccc(F)c(C)c2)ccc1-c1nccc2cc(S(=O)(=O)Nc3ccncn3)ccc12 [Example 488, 1-(4′-FLUORO-3-METHOXY-3′-METHYL-[1,1′-BIPHENYL]-4-YL)-N-(PYRIMIDIN-4-YL)ISOQUINOLINE-6-SULFONAMIDE]	99 nM	> 30000 nM
COc1cc(-c2cc(F)cc(F)c2)ccc1-c1nccc2cc(S(=O)(=O)Nc3ccnc(C)n3)ccc12 [Example 370, 1-(3′,5′-DIFLUORO-3-METHOXY-[1,1′-BIPHENYL]-4-YL)-N-(2-METHYLPYRIMIDIN-4-YL)ISOQUINOLINE-6-SULFONAMIDE]	813 nM	> 30000 nM
COc1cc(-c2cccc(F)c2)ccc1-c1nccc2cc(S(=O)(=O)Nc3ncns3)ccc12 [Example 369, 1-(3′-FLUORO-3-METHOXY-[1,1′-BIPHENYL]-4-YL)-N-(1,2,4-THIADIAZOL-5-YL)ISOQUINOLINE-6-SULFONAMIDE]	58 nM	> 30000 nM
COc1cc(C(F)(F)F)ccc1-c1nccc2cc(S(=O)(=O)Nc3cscn3)ccc12 [Example 497, 1-(2-METHOXY-4-(TRIFLUOROMETHYL)PHENYL)-N-(THIAZOL-4-YL)ISOQUINOLINE-6-SULFONAMIDE]	786 nM	> 30000 nM
